According to patent US7355024B2, “Regulatory sequences for modulation of INGAP expression and reporter constructs” (GMP Endotherapeutics, Inc., priority 2002, dated 2008):

Key:
[1] = system: hamster INGAP 5′-regulatory region; assay: β-galactosidase reporter assay with hamster INGAP 5′-regulatory region fragments in transfected 293T cells; type: cell-based; details: human 293T cells
Source text: Promoter analysis of INGAP identified a number of potential promoter-proximal regulatory sites including the consensus transcription factor binding sites; cAMP response element (CRE), AP-1 and STAT. Promoter-fragment reporter-gene constructs were transiently transfected into 293T cells and co-transfection of secretory alkaline phosphatase was used to normalize for transfection efficiency.
(§1) Reporter constructs containing INGAP 5′-regulatory region fragments 2—3sP (SEQ ID NO: 37), 2—3dP (SEQ ID NO: 38), 2—3pP (SEQ ID NO: 36), 14—3P (SEQ ID NO: 34), 16—3P (SEQ ID NO: 31), or 19—3P (SEQ ID NO: 23) were transfected into human cells. The pβGal-Basic plasmid without the hamster INGAP DNA was also transfected into human cells as a control to measure the level of endogenous reporter activity. Two days following transfection, the cells were treated with PMA for 24 hours or were untreated. To determine the level of promoter activity, the amount of β-galactosidase gene product was determined using a luminescent assay for β-galactosidase.
as §1, with “construct” for “constructs”, “DNA nucleotides 2030 to 3120 was” for “fragments 2—3sP (SEQ ID NO: 37), 2—3dP (SEQ ID NO: 38), 2—3pP (SEQ ID NO: 36), 14—3P (SEQ ID NO: 34), 16—3P (SEQ ID NO: 31), or 19—3P (SEQ ID NO: 23) were”, “LIF” for “PMA”
To map the approximate location of PMA-initiated or LIF-initiated transcription factor binding different fragments of the hamster INGAP 5′-regulatory region were cloned into pβGal-Basic. The fragments cloned into the reporter construct were 2—3sP (SEQ ID NO: 37), 2—3dP (SEQ ID NO: 38), 2—3pP (SEQ ID NO: 36), 14—3P (SEQ ID NO: 34), 16—3P (SEQ ID NO: 31), or 19—3P (SEQ ID NO: 23). […] To determine the level of promoter activity, the amount of β-galactosidase gene product was determined using a luminescent assay for β-galactosidase. […]

[2] = system: INGAP gene; assay: Northern RNA analysis of INGAP gene upregulation in AR42J cells; type: cell-based; details: rat AR42J cells; IL-6 1000 U/ml, 24 hours; FIG. 12
Method: To determine if INGAP RNA levels increase after stimulation with a cytokine that signals through STAT, rat amphocrine pancreatic cells, AR42J were treated with IL-6 (1000 U/ml) for 24 hours. Total RNA was extracted from the treated and untreated cells using techniques well known in the art, e.g., using TRIZOL® reagent.
Equal amounts of total RNA (10 μg) were loaded in 2.5% formaldehyde gel and electrophoresed for 4 hours at 70V with a constant circulation of the buffer using a circulating pump. The gel was photographed and washed with water twice at room temperature and soaked in 20×SSC. The gel was transferred to a nylon membrane (Amersham) in 20×SSC overnight following a standard procedure. The membrane was washed with 20×SSC to remove any agar that might have attached to the membrane and baked for 4 hours at […].
One hundred nanograms of hamster INGAP cDNA was labeled using Random Prime Labeling kit (Roche-BMB) and alpha-P^32 dCTP (ICN). Approximately 20 million counts were used for hybridization in 20 ml hybridization buffer following the standard procedure at 42° for overnight. The blot was washed as follows: 2-times at room temperature with 2×SSC for 10 minutes each; 2-times at 42° with 2×SSC for 10 minutes each; 2-times at 55° with 1×SSC for 10 minutes each. The membrane was exposed to the film (XOMAT-Kodak) and kept at −80° C. overnight before developing.

With `CCCCCCCCCCCCCC(=O)O[C@@H]1[C@@H](C)[C@@]2(O)[C@@H](C=C(CO)C[C@]3(O)C(=O)C(C)=C[C@@H]23)[C@@H]2C(C)(C)[C@]12OC(C)=O` [PMA, phorbol myristate acetate, reference compound] the “promoter activity (β-galactosidase reporter, luminescent assay)” value (“promoter activity” below) ([1]; constructs 2_3sP, 2_3dP, 2_3pP, 14_3P, 16_3P, 19_3P, PMA 6, 17, 50, 100 or 300 ng/ml, 24 hours, FIG. 10) was “activated the cell reporter constructs”.
In the case of “IL-6: cytokine that signals through STAT”, the “INGAP gene expression (RNA, Northern analysis)” value [2] is reported as “increase in INGAP gene expression”.
For “LIF: human leukemia inhibitory factor (hLIF)”, the “promoter activity” value ([1]; construct with INGAP 5′-regulatory region nucleotides 2030 to 3120, treated 24 hours, two days after transfection, FIG. 9B) was “increase the activity of the 5′-regulatory region of mammalian INGAP” and the “promoter activity” value ([1]; constructs 2_3sP, 2_3dP, 2_3pP, 14_3P, 16_3P, 19_3P, LIF 1, 10 or 30 ng/ml, 24 hours, FIG. 11) was “activated the cell reporter constructs”.
